# Tests used:
# Format in all cases: in vivo
# [1] = system: Paddy rice (Oryza sp.); test: Example C: test in sown rice (Brazil), damage to rice; conditions: fentrazamide 250 EC 300 g a.i./ha; spray at BBCH 23 stage of the rice, 29 days after sowing; scored 2 weeks after application; outdoor test Brazil 1999
# Source text: (§1) To prepare a spray preparation, the active compound preparations are mixed with water. The concentration is adjusted so that the application rate corresponds to 200 l of water/ha.
# (§2) Rice seeds are sown in test plots (2 m×5 m) in rice paddies. 29 days after sowing (during the BBCH 23 development stage of the rice; begin of stocking), the spray preparation is applied to the test areas (using a hand-operated sprayer). A few days after the treatment, the soil is flooded to a water depth of 5 cm; the standing water levels are kept constant.
# (§3) 2 weeks after the active compound application, the degree of damage to the rice plants and the herbicidal effect on the emerged weeds Echinochloa crus-galli and Brachiaria plantaginea is scored visually in percent in comparison to an untreated control.
# (§4) The figures denote: • 0%=no action/damage (like untreated control) • 100%=total destruction
# [2] = system: Brachiaria plantaginea; test: Example B: test in sown rice (Brazil), herbicidal effect; conditions: fentrazamide 250 EC 300 g a.i./ha; spray at BBCH 23 stage of the rice, 29 days after sowing; scored 2 weeks after application; outdoor test Brazil 1999
# Source text: as §1, §2, §3, §4
# [3] = system: Echinochloa crus-galli; test: as above; conditions: fentrazamide 250 EC 300 g a.i./ha; spray at BBCH 23 stage of the rice, 29 days after sowing; scored 2 weeks after application; outdoor test Brazil 1999
# Source text: as §1, §2, §3, §4
# [4] = system: Paddy rice (Oryza sp.); test: Example B: test in sown rice (Brazil), damage to rice; conditions: fentrazamide 250 EC 300 g a.i./ha; spray at BBCH 23 stage of the rice, 29 days after sowing; scored 2 weeks after application; outdoor test Brazil 1999
# Source text: as §1, §2, §3, §4
# [5] = system: Paddy rice (Oryza sp.); test: Example A: test in sown rice (Brazil), damage to rice; conditions: fentrazamide 250 EC 400 g a.i./ha; spray at 1-2-leaf stage of the rice, 10 days after sowing; scored 3 weeks after application; outdoor test Brazil 1999
# Source text: as §1
# as §2, with “10” for “29”, “(when” for “(during”, “rice has reached” for “BBCH 23 development stage of”, “1-2-leaf stage),” for “rice; begin of stocking),”, “1 month” for “A few days”
# (§5) 3 weeks after the active compound application, the degree of damage to the rice plants and the herbicidal effect on the emerged weeds of the species Aeschynomene rudis is scored visually in percent in comparison to an untreated control.
# as §4
# [6] = system: Paddy rice (Oryza sp.); test: Example D: test in sown rice (Brazil), damage to rice; conditions: fentrazamide 250 EC 300 g a.i./ha; spray at BBCH 23 stage of the rice, 29 days after sowing; scored 2 weeks after application; outdoor test Brazil 1999
# Source text: as §1, §2, §3, §4
# [7] = system: Paddy rice (Oryza sp.); test: Example I: test in sown rice (Thailand), damage to rice; conditions: fentrazamide 50 WP 135 g a.i./ha; spray 7 days after sowing (2-leaf-stage); scored 3 weeks after application; outdoor test Thailand 1999
# Source text: as §1
# as §2, with “(2.5 m×2.5” for “(2 m×5”, “7” for “29”, “(2-leaf-stage” for “(during the BBCH 23 development stage”, “rice),” for “rice; begin of stocking),”, “2” for “A few”
# (§6) 3 weeks after the active compound application, the degree of damage to the rice plants and the herbicidal effect on the emerged weeds Echinochloa crus-galli is scored visually in percent in comparison to an untreated control.
# as §4
# [8] = system: Leptochloa chinensis; test: Example H: test in sown rice (Thailand), herbicidal effect; conditions: fentrazamide 50 WP 135 g a.i./ha; spray 7 days after sowing (2-leaf-stage); scored 8 weeks after application; outdoor test Thailand 1999
# Source text: as §1
# as §2, with “(2.5 m×2.5” for “(2 m×5”, “7” for “29”, “(2-leaf-stage” for “(during the BBCH 23 development stage”, “rice),” for “rice; begin of stocking),”, “2” for “A few”
# (§7) 8 weeks after the active compound application, the degree of damage to the rice plants and the herbicidal effect on the emerged weeds Echinochloa crus-galli and Leptochloa chinensis is scored visually in percent in comparison to an untreated control.
# as §4
# [9] = system: Echinochloa crus-galli; test: as above; conditions: fentrazamide 50 WP 135 g a.i./ha; spray 7 days after sowing (2-leaf-stage); scored 8 weeks after application; outdoor test Thailand 1999
# Source text: as §1
# as §2, with “(2.5 m×2.5” for “(2 m×5”, “7” for “29”, “(2-leaf-stage” for “(during the BBCH 23 development stage”, “rice),” for “rice; begin of stocking),”, “2” for “A few”
# as §7, §4
# [10] = system: Aeschynomene rudis; test: Example A: test in sown rice (Brazil), herbicidal effect; conditions: fentrazamide 250 EC 400 g a.i./ha; spray at 1-2-leaf stage of the rice, 10 days after sowing; scored 3 weeks after application; outdoor test Brazil 1999
# Source text: as §1
# as §2, with “10” for “29”, “(when” for “(during”, “rice has reached” for “BBCH 23 development stage of”, “1-2-leaf stage),” for “rice; begin of stocking),”, “1 month” for “A few days”
# as §5, §4
# [11] = system: Paddy rice (Oryza sp.); test: Example H: test in sown rice (Thailand), damage to rice; conditions: fentrazamide 50 WP 135 g a.i./ha; spray 7 days after sowing (2-leaf-stage); scored 8 weeks after application; outdoor test Thailand 1999
# Source text: as §1
# as §2, with “(2.5 m×2.5” for “(2 m×5”, “7” for “29”, “(2-leaf-stage” for “(during the BBCH 23 development stage”, “rice),” for “rice; begin of stocking),”, “2” for “A few”
# as §7, §4
# [12] = system: Brachiaria plantaginea; test: Example C: test in sown rice (Brazil), herbicidal effect; conditions: fentrazamide 250 EC 300 g a.i./ha; spray at BBCH 23 stage of the rice, 29 days after sowing; scored 2 weeks after application; outdoor test Brazil 1999
# Source text: as §1, §2, §3, §4
# [13] = system: Echinochloa crus-galli; test: as above; conditions: fentrazamide 250 EC 300 g a.i./ha; spray at BBCH 23 stage of the rice, 29 days after sowing; scored 2 weeks after application; outdoor test Brazil 1999
# Source text: as §1, §2, §3, §4
# [14] = system: Commelina benghalensis; test: Example F: test in sown rice (Brazil), herbicidal effect; conditions: fentrazamide 250 EC 300 g a.i./ha; spray at BBCH 12 stage of the rice (2-leaf-stage), 18 days after sowing; scored 3 weeks after application; outdoor test Brazil 1999
# Source text: as §1
# (§8) Rice seeds are sown in test plots (2 m×5 m) in rice paddies. 18 days after sowing (during the BBCH 12 development stage of the rice; corresponds to the 2-leaf-stage), the spray preparation is applied to the test areas (using a hand-operated sprayer).
# (§9) 3 weeks after the active compound application, the degree of damage to the rice plants and the herbicidal effect on the emerged weeds Acanthospermum hispidum, Commelina benghalensis, Digitaria sanguinalis and Eleusine indica is scored visually in percent in comparison to an untreated control.
# as §4
# [15] = system: Acanthospermum hispidum; test: as above; conditions: fentrazamide 250 EC 300 g a.i./ha; spray at BBCH 12 stage of the rice (2-leaf-stage), 18 days after sowing; scored 3 weeks after application; outdoor test Brazil 1999
# Source text: as §1, §8, §9, §4
# [16] = system: Digitaria sanguinalis; test: as above; conditions: fentrazamide 250 EC 300 g a.i./ha; spray at BBCH 12 stage of the rice (2-leaf-stage), 18 days after sowing; scored 3 weeks after application; outdoor test Brazil 1999
# Source text: as §1, §8, §9, §4
# [17] = system: Eleusine indica; test: as above; conditions: fentrazamide 250 EC 300 g a.i./ha; spray at BBCH 12 stage of the rice (2-leaf-stage), 18 days after sowing; scored 3 weeks after application; outdoor test Brazil 1999
# Source text: as §1, §8, §9, §4
# [18] = system: Echinochloa crus-galli; test: Example I: test in sown rice (Thailand), herbicidal effect; conditions: fentrazamide 50 WP 135 g a.i./ha; spray 7 days after sowing (2-leaf-stage); scored 3 weeks after application; outdoor test Thailand 1999
# Source text: as §1
# as §2, with “(2.5 m×2.5” for “(2 m×5”, “7” for “29”, “(2-leaf-stage” for “(during the BBCH 23 development stage”, “rice),” for “rice; begin of stocking),”, “2” for “A few”
# as §6, §4
# [19] = system: Brachiaria plantaginea; test: Example D: test in sown rice (Brazil), herbicidal effect; conditions: fentrazamide 250 EC 300 g a.i./ha; spray at BBCH 23 stage of the rice, 29 days after sowing; scored 2 weeks after application; outdoor test Brazil 1999
# Source text: as §1, §2, §3, §4
# [20] = system: Echinochloa crus-galli; test: as above; conditions: fentrazamide 250 EC 300 g a.i./ha; spray at BBCH 23 stage of the rice, 29 days after sowing; scored 2 weeks after application; outdoor test Brazil 1999
# Source text: as §1, §2, §3, §4
# [21] = system: Paddy rice (Oryza sp.); test: Example G: test in sown rice (Philippines), damage to rice; conditions: fentrazamide 50 WP 135 g a.i./ha; spray 11 days after sowing (4-leaf-stage); scored 8 weeks after application; outdoor test Philippines 1999
# Source text: as §1
# as §2, with “(2.5 m×2.5” for “(2 m×5”, “11” for “29”, “(4-leaf-stage” for “(during the BBCH 23 development stage”, “rice),” for “rice; begin of stocking),”, “1 day” for “A few days”
# (§10) 8 weeks after the active compound application, the degree of damage to the rice plants and the herbicidal effect on the emerged weeds of the species Echinochloa crus-galli is scored visually in percent in comparison to an untreated control.
# as §4
# [22] = system: Echinochloa crus-galli; test: Example G: test in sown rice (Philippines), herbicidal effect; conditions: fentrazamide 50 WP 135 g a.i./ha; spray 11 days after sowing (4-leaf-stage); scored 8 weeks after application; outdoor test Philippines 1999
# Source text: as §1
# as §2, with “(2.5 m×2.5” for “(2 m×5”, “11” for “29”, “(4-leaf-stage” for “(during the BBCH 23 development stage”, “rice),” for “rice; begin of stocking),”, “1 day” for “A few days”
# as §10, §4
# [23] = system: Paddy rice (Oryza sp.); test: Example E: test in sown rice (Brazil), damage to rice; conditions: fentrazamide 250 EC 300 g a.i./ha; spray at BBCH 23 stage of the rice, 29 days after sowing; scored 2 weeks after application; outdoor test Brazil 1999
# Source text: as §1, §2, §3, §4
# [24] = system: Mountain rice (Oryza sp.); test: Example F: test in sown rice (Brazil), damage to rice; conditions: fentrazamide 250 EC 300 g a.i./ha; spray at BBCH 12 stage of the rice (2-leaf-stage), 18 days after sowing; scored 3 weeks after application; outdoor test Brazil 1999
# Source text: as §1, §8, §9, §4
# [25] = system: Brachiaria plantaginea; test: Example E: test in sown rice (Brazil), herbicidal effect; conditions: fentrazamide 250 EC 300 g a.i./ha; spray at BBCH 23 stage of the rice, 29 days after sowing; scored 2 weeks after application; outdoor test Brazil 1999
# Source text: as §1, §2, §3, §4
# [26] = system: Echinochloa crus-galli; test: as above; conditions: fentrazamide 250 EC 300 g a.i./ha; spray at BBCH 23 stage of the rice, 29 days after sowing; scored 2 weeks after application; outdoor test Brazil 1999
# Source text: as §1, §2, §3, §4
smiles,measurement,setting,value
"CCN(C(=O)n1nnn(-c2ccccc2Cl)c1=O)C1CCCCC1 [(A), 4-(2-chlorophenyl)-N-cyclohexyl-N-ethyl-4,5-dihydro-5-oxo-1H-tetrazole-1-carboxamide]",Damage or action in % Paddy rice (Oryza sp.) found,[1],0%
same,Damage or action in % Brachiaria plantaginea found,[2],10%
same,Damage or action in % Echinochloa crus-galli found,[3],35%
same,Damage or action in % Paddy rice (Oryza sp.) found,[4],0%
same,Damage or action in % Paddy rice (Oryza sp.) found,[5],0%
same,Damage or action in % Paddy rice (Oryza sp.) found,[6],0%
same,Damage or action in % Paddy rice (Oryza sp.) found,[7],2%
same,Damage or action in % Leptochloa chinensis found,[8],38%
same,Damage or action in % Echinochloa crus-galli found,[9],47%
same,Damage or action in % Aeschynomene rudis found,[10],30%
same,Damage or action in % Paddy rice (Oryza sp.) found,[11],3%
same,Damage or action in % Brachiaria plantaginea found,[12],10%
same,Damage or action in % Echinochloa crus-galli found,[13],35%
same,Damage or action in % Commelina Bengha-lensis found,[14],50%
same,Damage or action in % Acantho-spermum hispidum found,[15],50%
same,Damage or action in % Digitaria Sanguina-lis found,[16],50%
same,Damage or action in % Eleusine indica found,[17],50%
same,Damage or action in % Echinochloa crus-galli found,[18],58%
same,Damage or action in % Brachiaria plantaginea found,[19],10%
same,Damage or action in % Echinochloa crus-galli found,[20],35%
same,Damage or action in % Paddy rice (Oryza sp.) found,[21],0%
same,Damage or action in % Echinochloa crus-galli found,[22],78%
same,Damage or action in % Paddy rice (Oryza sp.) found,[23],0%
same,Damage or action in % Mountain rice (Oryza sp.) found,[24],0%
same,Damage or action in % Brachiaria plantaginea found,[25],10%
same,Damage or action in % Echinochloa crus-galli found,[26],35%

# From patent US7202196B2, “Selective herbicide comprising a tetrazolinone derivative” (Bayer Cropscience AG, priority 2001, dated 2007)
